ChEMBL document CHEMBL4177534, “Discovery and evaluation of 1H-pyrrolo[2,3-b]pyridine based selective and reversible small molecule BTK inhibitors for the treatment of rheumatoid arthritis” (Bioorg Med Chem Lett, 2017)

Tests used:
[1] = biological target: Mast/stem cell growth factor receptor Kit (Homo sapiens) (UniProt P10721); test: Inhibition of recombinant human N-terminal GST-tagged c-KIT (544 to end residues) expressed in baculovirus infected Sf9 cells assessed as change in enzyme activity at 1 uM in presence of 2 uM ATP relative to control; set-up: scale not given: the % may be the effect or the level left
[2] = biological target: Tyrosine-protein kinase JAK3 (Homo sapiens, UniProt P52333); test: Inhibition of recombinant human JAK3 (781 to 1124 residues) preincubated for 10 mins followed by poly-[Glu-Tyr(4:1) substrate addition after 60 mins in presence of ATP by Kinase-Glo assay
[3] = biological target: T1, Tyrosine-protein kinase BTK (Homo sapiens, UniProt Q06187); test: Inhibition of human BTK assessed as decrease in […] antibody stimulated BCR mediated CD69 upregulation in whole blood preincubated for 1 hr followed by antibody challenge after 4 hrs by flow cytometry
T1 sequence (Q06187 whole entry): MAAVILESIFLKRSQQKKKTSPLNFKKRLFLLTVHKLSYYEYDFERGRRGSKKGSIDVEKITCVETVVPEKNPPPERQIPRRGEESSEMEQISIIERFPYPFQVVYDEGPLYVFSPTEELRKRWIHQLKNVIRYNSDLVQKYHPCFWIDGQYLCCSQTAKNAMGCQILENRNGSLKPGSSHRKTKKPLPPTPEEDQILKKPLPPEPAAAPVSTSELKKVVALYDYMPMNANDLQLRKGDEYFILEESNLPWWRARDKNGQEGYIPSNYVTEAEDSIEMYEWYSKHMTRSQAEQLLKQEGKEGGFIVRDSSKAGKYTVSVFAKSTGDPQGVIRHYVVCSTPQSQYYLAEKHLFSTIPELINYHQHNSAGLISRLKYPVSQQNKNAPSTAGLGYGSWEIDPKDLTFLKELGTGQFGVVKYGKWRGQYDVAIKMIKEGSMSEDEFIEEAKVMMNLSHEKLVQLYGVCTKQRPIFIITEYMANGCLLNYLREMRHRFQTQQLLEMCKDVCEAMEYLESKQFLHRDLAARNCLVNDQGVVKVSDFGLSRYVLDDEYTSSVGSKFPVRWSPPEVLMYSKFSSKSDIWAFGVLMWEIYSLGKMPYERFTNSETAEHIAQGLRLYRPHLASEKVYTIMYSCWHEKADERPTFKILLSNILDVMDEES

[4] = biological target: Fibroblast growth factor receptor 4 (Homo sapiens) (UniProt P22455); test: Inhibition of recombinant human N-terminal GST-tagged FGFR4 (460 to end) residues expressed in baculovirus infected Sf9 cells assessed as change in enzyme activity at 1 uM in presence of 1 uM ATP relative to control; set-up: scale not given: the % may be the effect or the level left
[5] = biological target: Glycogen synthase kinase-3 beta (Homo sapiens) (UniProt P49841); test: Inhibition of recombinant human full length N-terminal GST/His tagged GSK3beta expressed in baculovirus infected Sf9 cells assessed as change in enzyme activity at 1 uM in presence of 1 uM ATP relative to control; set-up: scale not given: the % may be the effect or the level left
Glycogen synthase kinase-3 beta (Homo sapiens), sequence (P49841 whole entry, looked up): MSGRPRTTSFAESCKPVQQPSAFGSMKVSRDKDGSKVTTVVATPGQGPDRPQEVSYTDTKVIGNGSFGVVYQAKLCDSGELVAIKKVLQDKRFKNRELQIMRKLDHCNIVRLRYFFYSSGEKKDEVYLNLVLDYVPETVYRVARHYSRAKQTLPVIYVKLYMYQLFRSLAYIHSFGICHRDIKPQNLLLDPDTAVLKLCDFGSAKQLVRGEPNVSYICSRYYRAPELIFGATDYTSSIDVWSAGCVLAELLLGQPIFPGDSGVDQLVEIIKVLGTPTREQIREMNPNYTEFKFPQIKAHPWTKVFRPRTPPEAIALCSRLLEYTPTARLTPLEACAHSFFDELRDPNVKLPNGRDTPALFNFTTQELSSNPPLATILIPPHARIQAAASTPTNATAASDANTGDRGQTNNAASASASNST

[6] = biological target: Mitogen-activated protein kinase 14 (Homo sapiens) (UniProt Q16539); test: Inhibition of recombinant human full length N-terminal GST-tagged p38alpha expressed in baculovirus infected Sf9 cells assessed as change in enzyme activity at 1 uM in presence of 1 uM ATP relative to control; set-up: scale not given: the % may be the effect or the level left
Mitogen-activated protein kinase 14 (Homo sapiens), sequence (Q16539 whole entry): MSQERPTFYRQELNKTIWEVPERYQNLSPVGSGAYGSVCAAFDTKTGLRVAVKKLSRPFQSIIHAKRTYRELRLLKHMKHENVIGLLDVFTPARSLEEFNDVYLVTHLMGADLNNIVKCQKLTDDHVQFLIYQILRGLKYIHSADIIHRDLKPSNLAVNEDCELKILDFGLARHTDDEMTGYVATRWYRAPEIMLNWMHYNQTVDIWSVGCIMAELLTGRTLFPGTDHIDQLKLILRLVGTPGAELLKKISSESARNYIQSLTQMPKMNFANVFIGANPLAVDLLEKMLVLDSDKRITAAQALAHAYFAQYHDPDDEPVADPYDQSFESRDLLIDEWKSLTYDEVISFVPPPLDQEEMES

[7] = biological target: Calcium/calmodulin-dependent protein kinase type IV (Homo sapiens) (UniProt Q16566); test: Inhibition of recombinant human full length N-terminal GST-tagged CAMK4 expressed in baculovirus infected Sf9 cells assessed as change in enzyme activity at 1 uM in presence of 2 uM ATP relative to control; set-up: scale not given: the % may be the effect or the level left
Calcium/calmodulin-dependent protein kinase type IV (Homo sapiens), sequence (Q16566 whole entry): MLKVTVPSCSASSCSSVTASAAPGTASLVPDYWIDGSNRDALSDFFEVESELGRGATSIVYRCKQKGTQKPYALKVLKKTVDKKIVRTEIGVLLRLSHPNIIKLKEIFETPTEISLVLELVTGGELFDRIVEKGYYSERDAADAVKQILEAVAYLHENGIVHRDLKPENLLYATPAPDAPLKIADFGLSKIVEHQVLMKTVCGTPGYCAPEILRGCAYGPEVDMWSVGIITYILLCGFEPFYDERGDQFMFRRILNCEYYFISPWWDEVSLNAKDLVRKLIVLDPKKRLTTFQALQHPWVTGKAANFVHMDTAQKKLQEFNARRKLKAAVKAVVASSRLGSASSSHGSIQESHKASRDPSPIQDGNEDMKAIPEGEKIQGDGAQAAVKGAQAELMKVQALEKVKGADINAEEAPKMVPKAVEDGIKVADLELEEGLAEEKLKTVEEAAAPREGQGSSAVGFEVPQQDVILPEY

[8] = Equilibrium aqueous solubility of the compound at pH 4; assay type: physicochemical
[9] = biological target: Tyrosine-protein kinase ZAP-70 (Homo sapiens) (UniProt P43403); test: Inhibition of recombinant human full length N-terminal GST-tagged ZAP70 expressed in baculovirus infected Sf9 cells assessed as change in enzyme activity at 1 uM in presence of 2 uM ATP relative to control; set-up: scale not given: the % may be the effect or the level left
Tyrosine-protein kinase ZAP-70 (Homo sapiens), sequence (P43403 whole entry): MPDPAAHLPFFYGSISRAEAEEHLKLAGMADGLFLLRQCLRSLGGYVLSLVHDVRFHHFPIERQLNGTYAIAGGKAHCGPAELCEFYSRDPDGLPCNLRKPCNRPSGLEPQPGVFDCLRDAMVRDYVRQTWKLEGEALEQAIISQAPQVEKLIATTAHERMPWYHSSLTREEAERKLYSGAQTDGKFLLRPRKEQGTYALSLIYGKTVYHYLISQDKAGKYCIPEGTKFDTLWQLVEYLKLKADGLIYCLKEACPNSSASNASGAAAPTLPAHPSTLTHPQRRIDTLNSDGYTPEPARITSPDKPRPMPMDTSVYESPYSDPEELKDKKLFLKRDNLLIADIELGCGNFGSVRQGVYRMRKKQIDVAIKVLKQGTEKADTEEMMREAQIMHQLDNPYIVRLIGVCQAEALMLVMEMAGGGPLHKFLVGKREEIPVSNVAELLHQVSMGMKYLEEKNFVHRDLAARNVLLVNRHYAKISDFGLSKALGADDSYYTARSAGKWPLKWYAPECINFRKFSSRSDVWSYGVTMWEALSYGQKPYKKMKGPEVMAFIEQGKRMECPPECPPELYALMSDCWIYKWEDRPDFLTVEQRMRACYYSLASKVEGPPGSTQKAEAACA

[10] = biological target: Cytoplasmic tyrosine-protein kinase BMX (Homo sapiens, UniProt P51813); test: Inhibition of human BMX
[11] = biological target: RAC-alpha serine/threonine-protein kinase (Homo sapiens) (UniProt P31749); test: Inhibition of recombinant human full length N-terminal GST-tagged AKT1 expressed in baculovirus infected Sf9 cells assessed as change in enzyme activity at 1 uM in presence of 2 uM ATP relative to control; set-up: scale not given: the % may be the effect or the level left
[12] = biological target: T1, Tyrosine-protein kinase BTK; test: Inhibition of recombinant human full length BTK preincubated for 10 mins followed by Tk-biotin peptide substrate addition after 90 mins by TR-FRET assay
[13] = Metabolic stability in human liver microsomes assessed as metabolism rate; assay type: ADME, microsome
[14] = biological target: Epidermal growth factor receptor (Homo sapiens) (UniProt P00533); test: Inhibition of recombinant human N-terminal GST-tagged EGFR expressed in baculovirus infected Sf9 cells assessed as change in enzyme activity at 1 uM in presence of 1 uM ATP relative to control; set-up: scale not given: the % may be the effect or the level left
[15] = biological target: Serine/threonine-protein kinase 4 (Homo sapiens) (UniProt Q13043); test: Inhibition of recombinant human full length N-terminal GST-tagged MST1 expressed in baculovirus infected Sf9 cells assessed as change in enzyme activity at 1 uM in presence of 1 uM ATP relative to control; set-up: scale not given: the % may be the effect or the level left
Serine/threonine-protein kinase 4 (Homo sapiens), sequence (Q13043 whole entry): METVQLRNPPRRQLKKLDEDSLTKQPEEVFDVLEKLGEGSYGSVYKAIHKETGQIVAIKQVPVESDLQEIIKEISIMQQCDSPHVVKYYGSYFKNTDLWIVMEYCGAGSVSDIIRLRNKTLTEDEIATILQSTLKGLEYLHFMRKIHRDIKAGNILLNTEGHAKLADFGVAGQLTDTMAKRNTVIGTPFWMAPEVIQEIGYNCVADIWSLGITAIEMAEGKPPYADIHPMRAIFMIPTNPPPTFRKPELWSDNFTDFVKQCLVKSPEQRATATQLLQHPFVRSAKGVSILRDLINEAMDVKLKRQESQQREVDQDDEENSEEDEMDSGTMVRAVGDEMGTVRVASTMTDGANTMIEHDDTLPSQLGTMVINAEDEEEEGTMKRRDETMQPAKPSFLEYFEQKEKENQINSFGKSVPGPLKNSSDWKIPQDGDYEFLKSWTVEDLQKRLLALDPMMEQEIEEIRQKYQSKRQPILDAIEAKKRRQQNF

[16] = biological target: Serine/threonine-protein kinase Chk1 (Homo sapiens) (UniProt O14757); test: Inhibition of recombinant human full length N-terminal GST/His tagged CHK1 expressed in baculovirus infected Sf9 cells assessed as change in enzyme activity at 1 uM in presence of 1 uM ATP relative to control; set-up: scale not given: the % may be the effect or the level left
Serine/threonine-protein kinase Chk1 (Homo sapiens), sequence (O14757 whole entry): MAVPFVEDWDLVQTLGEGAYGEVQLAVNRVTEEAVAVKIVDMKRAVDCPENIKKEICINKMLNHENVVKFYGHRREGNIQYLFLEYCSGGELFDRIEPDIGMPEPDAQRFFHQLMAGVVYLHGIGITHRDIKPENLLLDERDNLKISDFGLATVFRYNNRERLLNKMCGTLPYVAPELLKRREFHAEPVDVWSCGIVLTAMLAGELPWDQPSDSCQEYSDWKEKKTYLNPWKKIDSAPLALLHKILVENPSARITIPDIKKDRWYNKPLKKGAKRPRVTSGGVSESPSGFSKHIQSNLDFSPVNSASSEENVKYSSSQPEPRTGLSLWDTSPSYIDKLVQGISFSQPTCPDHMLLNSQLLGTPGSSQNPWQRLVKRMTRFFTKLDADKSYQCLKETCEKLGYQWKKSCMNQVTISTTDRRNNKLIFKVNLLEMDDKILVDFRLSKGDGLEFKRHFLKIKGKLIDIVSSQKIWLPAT

[17] = biological target: Tyrosine-protein kinase JAK2 (Homo sapiens, UniProt O60674); test: Inhibition of JAK2 (unknown origin)
Tyrosine-protein kinase JAK2, sequence (O60674 whole entry): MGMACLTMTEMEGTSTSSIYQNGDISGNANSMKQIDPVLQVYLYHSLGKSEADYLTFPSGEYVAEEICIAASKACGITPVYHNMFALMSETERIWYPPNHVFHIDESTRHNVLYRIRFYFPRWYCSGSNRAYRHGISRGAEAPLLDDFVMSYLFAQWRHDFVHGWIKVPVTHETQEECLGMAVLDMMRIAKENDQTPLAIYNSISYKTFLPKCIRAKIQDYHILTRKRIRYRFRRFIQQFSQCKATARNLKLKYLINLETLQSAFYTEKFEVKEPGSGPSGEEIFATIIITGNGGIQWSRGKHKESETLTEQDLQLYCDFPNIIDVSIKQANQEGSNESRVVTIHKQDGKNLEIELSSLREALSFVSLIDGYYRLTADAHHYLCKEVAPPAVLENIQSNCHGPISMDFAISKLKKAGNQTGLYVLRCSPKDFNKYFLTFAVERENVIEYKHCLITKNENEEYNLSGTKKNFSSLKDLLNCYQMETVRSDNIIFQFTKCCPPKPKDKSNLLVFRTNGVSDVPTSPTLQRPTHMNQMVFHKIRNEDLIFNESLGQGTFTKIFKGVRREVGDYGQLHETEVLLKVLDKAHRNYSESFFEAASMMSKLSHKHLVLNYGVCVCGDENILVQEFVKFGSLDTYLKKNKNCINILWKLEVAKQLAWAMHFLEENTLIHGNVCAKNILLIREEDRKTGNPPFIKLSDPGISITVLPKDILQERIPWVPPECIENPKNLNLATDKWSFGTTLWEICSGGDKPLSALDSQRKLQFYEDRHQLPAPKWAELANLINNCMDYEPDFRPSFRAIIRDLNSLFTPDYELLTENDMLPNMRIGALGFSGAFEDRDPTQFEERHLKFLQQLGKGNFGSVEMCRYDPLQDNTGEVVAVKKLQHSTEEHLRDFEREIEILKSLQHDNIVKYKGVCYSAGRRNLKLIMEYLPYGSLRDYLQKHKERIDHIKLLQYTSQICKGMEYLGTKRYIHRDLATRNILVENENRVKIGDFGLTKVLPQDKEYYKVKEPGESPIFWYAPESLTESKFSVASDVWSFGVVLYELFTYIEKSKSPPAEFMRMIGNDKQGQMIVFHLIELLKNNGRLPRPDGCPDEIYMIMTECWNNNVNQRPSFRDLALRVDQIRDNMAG

[18] = biological target: Tyrosine-protein kinase TXK (Homo sapiens) (UniProt P42681); test: Inhibition of recombinant N-terminal GST-tagged TXK (unknown origin) expressed in baculovirus infected Sf9 cells assessed as change in enzyme activity at 1 uM in presence of 2 uM ATP relative to control; set-up: scale not given: the % may be the effect or the level left
[19] = biological target: Tyrosine-protein kinase Lyn (Homo sapiens) (UniProt P07948); test: Inhibition of recombinant human full length N-terminal GST-tagged LYN A expressed in baculovirus infected Sf9 cells assessed as change in enzyme activity at 1 uM in presence of 1 uM ATP relative to control; set-up: scale not given: the % may be the effect or the level left
[20] = biological target: Mitogen-activated protein kinase 8 (Mus musculus) (UniProt Q91Y86); test: Inhibition of recombinant mouse N-terminal GST-tagged JNK1 expressed in baculovirus infected Sf9 cells assessed as change in enzyme activity at 1 uM in presence of 1 uM ATP relative to control; set-up: scale not given: the % may be the effect or the level left
Mitogen-activated protein kinase 8 (Mus musculus), sequence (Q91Y86 whole entry): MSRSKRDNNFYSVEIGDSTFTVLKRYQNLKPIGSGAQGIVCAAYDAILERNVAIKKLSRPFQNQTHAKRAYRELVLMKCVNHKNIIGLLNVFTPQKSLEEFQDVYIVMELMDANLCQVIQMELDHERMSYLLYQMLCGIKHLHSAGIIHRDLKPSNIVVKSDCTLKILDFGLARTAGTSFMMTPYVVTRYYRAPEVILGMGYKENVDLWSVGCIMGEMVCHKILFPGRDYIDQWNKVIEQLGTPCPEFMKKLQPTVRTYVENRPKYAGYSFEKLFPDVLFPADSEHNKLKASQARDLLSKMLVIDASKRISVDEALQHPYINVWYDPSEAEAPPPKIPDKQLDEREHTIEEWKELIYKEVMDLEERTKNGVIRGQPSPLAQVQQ

[21] = biological target: Platelet-derived growth factor receptor beta (Homo sapiens) (UniProt P09619); test: Inhibition of recombinant human full length N-terminal GST-tagged PDGFRbeta (unknown origin) expressed in baculovirus infected Sf9 cells assessed as change in enzyme activity at 1 uM in presence of 1 uM ATP relative to control; set-up: scale not given: the % may be the effect or the level left
[22] = biological target: Tyrosine-protein kinase Lck (Homo sapiens) (UniProt P06239); test: Inhibition of recombinant human full length N-terminal GST-tagged LCK expressed in baculovirus infected Sf9 cells assessed as change in enzyme activity at 1 uM in presence of 1 uM ATP relative to control; set-up: scale not given: the % may be the effect or the level left
[23] = biological target: Casein kinase I isoform alpha (Homo sapiens) (UniProt P48729); test: Inhibition of recombinant human full length N-terminal GST-tagged CK1alpha1 expressed in baculovirus infected Sf9 cells assessed as change in enzyme activity at 1 uM in presence of 1 uM ATP relative to control; set-up: scale not given: the % may be the effect or the level left
Mus musculus [24] = test: Ex-vivo inhibition of BTK in C57BL/6J mouse assessed as anti-mouse IgD antibody stimulated BCR mediated CD69 level in whole blood isolated from 10 mg/kg, po bid treated mouse measured after 24 hrs post first dose by flow cytometry relative to control; assay type: functional; set-up: scale not given: the % may be the effect or the level left
Mus musculus [25] = test: Ex-vivo inhibition of BTK in C57BL/6J mouse assessed as anti-mouse IgD antibody stimulated BCR mediated CD69 level in whole blood isolated from 100 mg/kg, po bid treated mouse measured after 2 hrs post first dose by flow cytometry relative to control; assay type: functional; set-up: scale not given: the % may be the effect or the level left
Mus musculus [26] = test: Ex-vivo inhibition of BTK in C57BL/6J mouse assessed as anti-mouse IgD antibody stimulated BCR mediated CD69 level in whole blood isolated from 30 mg/kg, po bid treated mouse measured after 2 hrs post first dose by flow cytometry relative to control; assay type: functional; set-up: scale not given: the % may be the effect or the level left
Mus musculus [27] = test: Ex-vivo inhibition of BTK in C57BL/6J mouse assessed as anti-mouse IgD antibody stimulated BCR mediated CD69 level in whole blood isolated from 100 mg/kg, po bid treated mouse measured after 24 hrs post first dose by flow cytometry relative to control; assay type: functional; set-up: scale not given: the % may be the effect or the level left

SMILES	Activity [1] [%]	IC50 [2] [µM]	IC50 [3] [nM]	Activity [4] [%]	Activity [5] [%]	Activity [6] [%]	Activity [7] [%]	solubility thermodynamic [8] [µM]	Activity [9] [%]	IC50 [10] [µM]	Activity [11] [%]	IC50 [12] [nM]	Drug metabolism [13] [nmol/min/mg]	Activity [14] [%]	Activity [15] [%]	Activity [16] [%]	IC50 [17] [µM]	Activity [18] [%]	Activity [19] [%]	Activity [20] [%]	other results
O=C1c2c(F)cc(C3CC3)cc2OCCN1c1cccc(-c2ccnc3[nH]c(C4=CCN(C5COC5)CC4)cc23)c1CO	0	> 10	261	1	-2	4	1	> 2000	-1	4.68	-3	3.1	< 0.04	-1	5	-3	> 10	1	-2	-4	Activity [21]: -3%; Activity [22]: 1%; Activity [23]: 0%
CCN1CCN(Cc2ccc(-c3cc4c(-c5cccc(N6CCOc7cc(C8CC8)cc(F)c7C6=O)c5CO)ccnc4[nH]3)nc2)CC1	-1	> 10	83.5	0	2	-7	-5	> 2000	1	1.55	-15	2.6	< 0.04	2	-3	-14	> 10	-2	-12	1	Activity (Mus musculus [24]): 40%; Activity (Mus musculus [25]): 72%; Activity (Mus musculus [26]): 45%; Activity (Mus musculus [27]): 83%; Activity [21]: 2%; Activity [22]: -4%; Activity [23]: -1%
